Source: patent publication US20060058346A1, “Novel enantiomers of etrahydroisoquinoline derivatives and theirpharmaceutically acceptable salts, their preparations and pharmaceutical compositions” (priority 2002, published 2006)
Like-named read-outs stand apart in the source and are kept apart here.

Experiments:
[1] = Acute toxicity in rat (LD50); format: in vivo; conditions: Sprague-Dawley, in vivo
Description: Sprague-Dawley rats (six weeks) were used as test sample. Each group was comprised of two rats. […] The said emulsion was administered to two rats one times using intravenous injection and intraperitoneal injection.

Rat Thoracic Aortas = assay: Relaxation of rat thoracic aortas contracted by phenylephrine; conditions: for IC50: Rattus norvegicus, Endothelial cell, 0.1 μM phenylephrine contraction; for relaxation of contracted blood vessels: concentration-dependant manner
Description: Experimental group was divided into two groups, group containing endothelial cells of blood vessel and group not containing. Blood vessel of thoracic aortas was induced to contract by treatment with 0.1 μM of phenyleprine under tension of 1 g. Upon arriving at equilibrium, the enantiomers were added to an organ bath in a cumulative manner. Relaxation of thoracic aortas was recorded using a physiograph (Grass P7), calculating their response to the compounds with consideration of their added amount.

LPS-injected rat = assay: Serum/plasma level of nitrate/nitrite (NOx) in LPS-injected rat; format: in vivo; conditions: 10 mg/kg compound; LPS 20 mg/kg
Description: The rats were divided into three groups; (1) LPS-injected group (LPS was administered to abdominal cavity in an amount of 20 mg/kg), (2) enantiomer-injected group (LPS+the compounds represented by formula 3 to 8 was administered to abdominal cavity) or (3) saline solution-injected group. After administration of LPS, the rats were anaesthetized with pentobarbital. The blood was collected from rats by using heart punching. The plasma level of nitrite was measured by using the nitrate reductase derived from Aspergillus species, where the nitrate was reduced by enzyme. Particularly, the plasma was diluted with distilled water in a ratio of 1:10. Analysis buffering solution (KH2PO4 50 Mm, NADPH 0.6 Mm, FAD 5 Mm and nitrate reductase 10 U/ml, Ph 5.5) was added to the said plasma. Thereafter, the reaction was accomplished at 37° C. for 30 min. The plasma level of nitrite was measured by using sodium nitrite as a standard, and Griess solution. Standard curve to nitrite was calculated from the result derived from incubation in analysis buffering solution.

iNOS = assay: Expression of iNOS stimulated by LPS in macrophage cell, Western blotting; format: cell-based; conditions: LPS 1 μg/ml; 10, 50, 100 μM; FIG. 1
Description: Macrophage cells (RAW 264.7 cell) were plated on 100 mm culture dishes at a density of 1-2×10^5 cells and incubated in DMEM medium containing 10% fetal calf serum (heat-inactivated), 100 U/ml penicillin, and […] streptomycin in a CO2 incubator. When being grown to complete confluence, macrophage cell was inoculated in serum-free DMEM medium, and further incubated for about 24 hours. Thereafter, macrophage cells were stimulated in the presence of LPS (1 μg/ml) and each of the compounds represented by the formulas 3 to 8 for about 12 hours. Total protein was isolated from the macrophage cells. The isolated protein was quantified by using Bradford method. 10 μg of isolated protein was loaded in SDS-PAGE electroporesis gel. The said gel was transferred to PVDF membrane. Anti-iNOS antibody was added to the said gel, thereafter disposed at 4° C. overnight. Thereafter, secondary antibody was added to the said gel, reacted for 1 hour at the room temperature and sensitized using ECL. Expression of protein was quantified, compared to the expressed Actin.

[2] = ip, single intraperitoneal injection, read-out: LD50, Intraperitioneal injection
[3] = single intravenous injection, read-out: LD50, Intravenous injection
[4] = group containing endothelial cells, read-out: IC50 (E+), concentration showing relaxation response of 50%
[5] = group not containing endothelial cells, read-out: IC50 (E−), concentration showing relaxation response of 50%

Oc1cc2c(cc1O)[C@@H](Cc1cccc3ccccc13)NCC2 [Formula 6, (R)-6,7-Dihydroxy-1-(α-naphthylmethyl)-1,2,3,4-tetrahydroisoquinoline] showed an LD50 [1, 2] of 230 mg/kg, an LD50 [1, 3] of 88 mg/kg and an IC50 (Rat Thoracic Aortas; [4]) of 1.28 µM. For the same molecule, the IC50 (Rat Thoracic Aortas; [5]) was 8.81 µM and the “relaxation of contracted blood vessels” value (Rat Thoracic Aortas) was “induced relaxation”.
For Oc1ccc(C[C@H]2NCCc3cc(O)c(O)cc32)cc1 [Formula 4, (R)-6,7-Dihydroxy-1-(p-hydroxyphenylmethyl)-1,2,3,4-tetrahydroisoquinoline], the “plasma level of NOx” value (LPS-injected rat) was 85 ± 7 µM, the LD50 [1, 2] was 262 mg/kg and the LD50 [1, 3] was 95 mg/kg. For the same molecule, the IC50 (Rat Thoracic Aortas; [4]) was 4.64 µM, the IC50 (Rat Thoracic Aortas; [5]) was 7.7 µM and the “relaxation of contracted blood vessels” value (Rat Thoracic Aortas) was “induced relaxation”.
Oc1cc2c(cc1O)[C@H](Cc1ccc3ccccc3c1)NCC2 [Formula 7, (S)-6,7-Dihydroxy-1-(β-naphthylmethyl)-1,2,3,4-tetrahydroisoquinoline] gave an LD50 [1, 2] of 376 mg/kg, an LD50 [1, 3] of 184 mg/kg and an IC50 (Rat Thoracic Aortas; [4]) of 0.757 µM. The IC50 (Rat Thoracic Aortas; [5]) was 3.14 µM, the “relaxation of contracted blood vessels” value (Rat Thoracic Aortas) was “induced relaxation” and the “expression of iNOS protein” value (iNOS) was “inhibited expression of iNOS protein strongly than R-enantiomer”.
For Oc1ccc(C[C@@H]2NCCc3cc(O)c(O)cc32)cc1 [Formula 3, (S)-6,7-Dihydroxy-1-(p-hydroxyphenylmethyl)-1,2,3,4-tetrahydroisoquinoline], the “plasma level of NOx” value (LPS-injected rat) was 29 ± 3 µM, the LD50 [1, 2] was 450 mg/kg and the LD50 [1, 3] was 154 mg/kg. For the same molecule, the IC50 (Rat Thoracic Aortas; [4]) was 0.917 µM, the IC50 (Rat Thoracic Aortas; [5]) was 4.3 µM and the “relaxation of contracted blood vessels” value (Rat Thoracic Aortas) was “induced relaxation”. The “expression of iNOS protein” value (iNOS) was “inhibited expression of iNOS protein strongly than R-enantiomer”.
For Oc1cc2c(cc1O)[C@@H](Cc1ccc3ccccc3c1)NCC2 [Formula 8, (R)-6,7-Dihydroxy-1-(β-naphthylmethyl)-1,2,3,4-tetrahydroisoquinoline], the LD50 [1, 2] was 214 mg/kg, the LD50 [1, 3] was 80 mg/kg and the IC50 (Rat Thoracic Aortas; [4]) was 1.95 µM. For the same molecule, the IC50 (Rat Thoracic Aortas; [5]) was 7.54 µM and the “relaxation of contracted blood vessels” value (Rat Thoracic Aortas) was “induced relaxation”.
Oc1cc2c(cc1O)[C@H](Cc1cccc3ccccc13)NCC2 [Formula 5] gave an LD50 [1, 2] of 397 mg/kg, an LD50 [1, 3] of 172 mg/kg and an IC50 (Rat Thoracic Aortas; [4]) of 0.714 µM. For the same molecule, the IC50 (Rat Thoracic Aortas; [5]) was 5.5 µM, the “relaxation of contracted blood vessels” value (Rat Thoracic Aortas) was “induced relaxation” and the “expression of iNOS protein” value (iNOS) was “inhibited expression of iNOS protein strongly than R-enantiomer”.
